From ChEMBL document CHEMBL1131798, “Synthesis and cytotoxicity of analogues of the antibiotic BE 10988 inhibitors of DNA topoisomerase II” (Bioorg Med Chem Lett, 1999)

Tested on: L1210
Test: Antiproliferative activity using the murine L1210 leukemia cell line
Assay type: functional, cell-based
Settings: Mus musculus

Row | SMILES | IC50
1 | COc1ccc(OC)c2c1c(-c1nc(C(N)=O)cs1)cn2C | > 10 µM
2 | COc1ccc(OC)c2c1c(C(=O)NCCN1CCOCC1)cn2C | > 100 µM
3 | Cn1cc(-c2nc(C(N)=O)cs2)c2c1C(=O)C=CC2=O | 0.8 µM
4 | Cn1cc(C(=O)NCCN2CCOCC2)c2c1C(=O)C=CC2=O | 6.5 µM
